Square brackets hold non-standard residues; d marks the D form. Peptide text beside a SMILES is read from it.
Assays:
[1] = Ex-vivo stability in mouse whole blood, MALDI-TOF MS; assay type: in vitro ADME
Experimental: (§1) The stability of D-AIP in mouse plasma, blood and liver S-9 fraction was investigated to ascertain the metabolic resistance towards proteases and enzymatic activities in these matrices. Whole mouse blood obtained from healthy C57BL/6 male and female mice (6 mice in total) were collected in lithium heparin containing tubes, pooled and stored at 4° C. prior to its use. A fraction of the pooled blood was immediately centrifuged at 1500×g for 10 min at 4° C. to obtain the plasma. The whole blood and plasma samples were spiked with PBS (as control) or AIP (L-AIP, D-AIP or sD-AIP respectively) to make a final concentration of 1 ug/mL and incubated at 37° C. Initial samples were withdrawn to represent t=0 prior to incubation and others were withdrawn 1, 3 and 24 h respectively. Fresh mouse liver also obtained from C57BL/6 male and female mice were pooled, homogenized in 0.15 M Potassium chloride (KCl) and centrifuged at 9000×g. The supernatant represents liver homogenate (S-9) fraction which was mixed with other buffers to formulate the liver S-9 mix as previously described (Kolrep et al., 2017, Toxicol In Vitro, 42:161-170). Liver S-9 mix were spiked with AIP to make a final concentration of 1 μg/mL (L-AIP, D-AIP or sD-AIP respectively) and incubated at 37° C. Just after the addition of NADPH, 100 μL aliquot which represents t=0 samples were withdrawn and others were sampled accordingly at predetermined time points. 400 μL of ice cold MeOH was added to the spiked plasma, blood or liver S-9 fraction respectively, to precipitate the microsomal protein. The samples were then vigorously mixed for 30 s to facilitate extraction and centrifuged for 10 minutes at 13000 rpm, the supernatant was subjected to sample clean up by C18 ZipTip (EMD Millipore Corporation), the eluates were spotted with CHCA matrix on the ground steel MALDI-TOF target and analyzed with MALDI-TOF MS. Applying the t=0 peak area as 100% the intensities of the other time points were compared relatively for interpretation. […]

[2] = Ex-vivo stability in mouse liver S9-fraction, MALDI-TOF MS; assay type: in vitro ADME, C57BL/6 mice
Experimental: as §1

[3] = Tolerability of single oral doses; assay type: in vivo, C57BL/6 mice; conditions: single oral doses of 10, 30 and 100 mg/kg, female and male mice
Description: Animal care and all animal experiments were undertaken with federal guidelines and approval of the Institutional Animal Ethical Committee of McGill University, Montreal, Canada (Protocol Application Number: 2017-7880) and adequate measures were taken to minimize pain or discomfort. C57BL/6 mice were purchased from Charles River laboratories, a total of 144 healthy (7-9 weeks old) male and female (20-25 g) were grouped accordingly and housed in polycarbonate cages, (three mice per cage per sex) in air-conditioned rooms with a 12 h light/dark cycle. Animals were allowed unlimited access to drinking water and standard mouse chow during the study. Animals (n=3) were orally dosed with D-AIP using an oral gavage at 10, 30 and 100 mg/kg respectively prepared in phosphate buffered saline (PBS). […] Pharmacokinetic parameters area under the curve (AUC), maximum concentration reached (Cmax), time at which maximum concentration is reached (Tmax). elimination rate constant (A), elimination half-life (t1/2), apparent total clearance from plasma after oral administration (CI/F), apparent volume of distribution (Vd) and mean residence time (MRT) were calculated using PKSolver, a freely available menu-driven add-in program for Microsoft Excel written in Visual Basic for Applications (VBA), for solving problems in pharmacokinetics.

## C[C@H](O)[C@@H](NC(=O)CNC(=O)[C@H](N)CCCNC(=N)N)C(=O)N[C@H](Cc1ccccc1)C(=O)N[C@H](CCC(=O)O)C(=O)NCC(=O)N[C@H](CCCCN)C(=O)N[C@H](Cc1ccccc1)C(=O)O [D-AIP] (H-[dR]G[dT][dF][dE]G[dK][dF]-OH; N-terminus and C-terminus assumed)
[1]; 37° C., 24 h
  stability, MALDI-TOF MS signal (941 m/z): relatively stable up to 24 h
[1]; both sexes, C57BL/6, 24 h incubation, read-out: decrease of signal
  metabolised at 24 h, 1 ug/mL: ~50%
[2]; mouse liver S9-fraction, 37° C., 24 h
  stability, MALDI-TOF MS signal (941 m/z): relatively stable over 24 h
[2]; mouse liver S-9 fraction, after 24 h
  signal intensity compared to the unincubated sample: three-fold decreased intensity
[3]
  tolerability: well-tolerated with no detectable vital signs of abnormalities
